Results as given in PMC4965473 (Frontiers in Physiology, 2016).
“Also recorded” adds a separate entry of the source. Where a name gives a salt, the structure may show the parent alone.

How the values were obtained:
wt M2TMD21−49 [1] = system: wt M2TMD21−49; parameters: species or system influenza A; details: pH 5.5
M2TMD21−49 [2] = biological target: T1, M2TMD21−49 (Influenza A virus, UniProt P0DOF5, L46C); assay type: binding; details: pH 5.5
wt M2TMD21−49 [3] = system: wt M2TMD21−49; parameters: species or system influenza A; details: pH 5.5; remark: listed apart in the source
[4] = system: G34A mutant of M2TMD21−49; parameters: species or system influenza A; details: pH 5.5
M2TMD21−49 [5] = biological target: T1, M2TMD21−49

SMILES: NC12CC3CC(CC(C3)C1)C2 [amantadine, amantadine hydrochloride]
- maximum increase in DEER modulation depth upon binding of amantadine (wt M2TMD21−49 [1]): 23–30%
- reduction of k4d in the presence of amantadine (M2TMD21−49 [2]): 10 -fold
- narrowing of Gaussian widths (σ) in the presence of amantadine (wt M2TMD21−49 [3]): ca. 2 Å
- r1, Gaussian mean (proximal distance) (wt M2TMD21−49 [3]): 20.8 Å
- r2, Gaussian mean (lateral distance) (wt M2TMD21−49 [3]): 29 Å
- shortening of inter-spin distances upon binding of amantadine (wt M2TMD21−49 [3]): 5–8 Å
- effect of amantadine on C-terminal conformation / inter-spin distances of G34A mutant [4]: marginal if any effect on M2TMD C-terminal conformation; also recorded: Inter-spin distances do not change upon the addition of amantadine
- oligomeric species seen in EM micrographs (M2TMD21−49 [5]): monomers, dimers, and tetramers
